From patent US9096539B2, “Substituted 4,5-dihydro-2H-benzo[e]indazole-9-carboxylates for the treatment of diabetes and related disorders” (Council of Scientific & Industrial Research, priority 2012, dated 2015) come the findings set out here.

Where two headings read alike, the source gives them in different places.

Data set [1] concerns the target T1, human recombinant PTP1B enzyme (Homo sapiens, UniProt P18031).
T1 construct: purchased Enzo Life Sciences, USA BML-AK 822
T1 sequence (P18031 1-322 limits assumed): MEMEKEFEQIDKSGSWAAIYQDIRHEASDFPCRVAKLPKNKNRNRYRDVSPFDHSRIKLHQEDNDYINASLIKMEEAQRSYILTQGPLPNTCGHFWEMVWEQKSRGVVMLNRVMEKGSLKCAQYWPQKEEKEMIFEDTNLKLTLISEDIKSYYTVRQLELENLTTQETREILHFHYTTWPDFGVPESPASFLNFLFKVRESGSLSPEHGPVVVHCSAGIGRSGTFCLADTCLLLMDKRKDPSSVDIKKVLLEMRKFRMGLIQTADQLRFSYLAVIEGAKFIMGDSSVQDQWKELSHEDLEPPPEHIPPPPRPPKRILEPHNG
Nature of the data set: Protein tyrosine phosphatase-1B assay (colorimetric kit BML-AK 822). Format: biochemical. The following applies: read-out: % Inhibition (PTP-1B). The method, then: Assay was done according to the Kit manufacturers protocol, in brief the reaction was carried out in 96 well flat bottomed microtiter plate by the addition of assay buffer, solution of test compounds and diluted PTP1B enzyme. Enzyme reaction was initiated by addition of 50 μl of warmed 2× substrate then incubated the plate at 30° C. for 30 min. After incubation for 30 min. Reaction was terminated by addition of 25 μl of biomol red reagent and mixed thoroughly by repeated pipetting. […] Volumes and dilution of other component were accordingly as instructed in the manual provided in the kit. PTP1B phosphatase acting on the phosphopeptide substrate and release phosphate. The detection of free phosphate released is based on classic Malachite green assay. After adding biomol red to reaction wells after 30 minutes of incubation as described earlier the plate was incubated for another 20 min to develop the colour. Absorbance was recorded at 620 nm. on a microplate reader.

Where [2] appears, read: Table 5, evaluated at 10 μM concentration.

The melting point is the temperature of the solid-liquid transition. The inhibition is the share of the control response that was lost under treatment. In the case of `COC(=O)c1c(SC)cc(-c2ccccc2)c2c1-c1cn(-c3ccccc3)nc1CC2` [compound 4, methyl 8-(methylthio)-2,6-diphenyl-4,5-dihydro-2H-benzo[e]indazole-9-carboxylate], the melting point was 173 to 175 °C. Besides, the inhibition at 10 µM in data set [1] (setting [2]) stood at 16.4%.
The like results for `COC(=O)c1c(SC)cc(-c2cccs2)c2c1-c1cn(-c3ccccc3)nc1CC2` [compound 7, methyl 8-(methylthio)-2-phenyl-6-(thiophen-2-yl)-4,5-dihydro-2H-benzo[e]indazole-9-carboxylate] were, in that order, 174 to 176 °C and 12.7%.
The like results for `COC(=O)c1c(SC)cc(-c2ccc(F)cc2)c2c1-c1cn(-c3ccccc3)nc1CC2` [compound 8, methyl 6-(4-fluorophenyl)-8-(methylthio)-2-phenyl-4,5-dihydro-2H-benzo[e]indazole-9-carboxylate] were, in that order, 182 to 184 °C and 14.6%.
With `COC(=O)c1c(SC)cc(-c2ccc3ccc4cccc5ccc2c3c45)c2c1-c1cn(-c3ccccc3)nc1CC2` [compound 9, methyl 8-(methylthio)-2-phenyl-6-(pyren-1-yl)-4,5-dihydro-2H-benzo[e]indazole-9-carboxylate], the melting point is 174 to 176 °C. For the same compound, in data set [1], the inhibition at 10 µM is 10.7%.
In turn, `COC(=O)c1c(S(C)(=O)=O)cc(-c2ccc(F)cc2)c2c1-c1cn(-c3ccccc3)nc1CC2` [compound 10, methyl 6-(4-fluorophenyl)-8-(methylsulfonyl)-2-phenyl-4,5-dihydro-2H-benzo[e]indazole-9-carboxylate] showed a melting point of 245 to 247 °C. Also, the inhibition at 10 µM in data set [1] (setting [2]) was determined as 1.52%.
As to `COC(=O)c1c(S(C)(=O)=O)cc(-c2cccc3ccccc23)c2c1-c1cn(-c3ccccc3)nc1CC2` [compound 11, methyl 8-(methylsulfonyl)-6-(naphthalen-1-yl)-2-phenyl-4,5-dihydro-2H-benzo[e]indazole-9-carboxylate], the melting point was in the range of 204 to 206 °C. Also, in data set [1] (setting [2]), the inhibition at 10 µM came to 18.8%.
Taken in the same sequence, the figures for `COC(=O)c1c(S(C)(=O)=O)cc(-c2ccc(C)cc2)c2c1-c1cn(-c3ccccc3)nc1CC2` [compound 12, methyl 8-(methylsulfonyl)-2-phenyl-6-(p-tolyl)-4,5-dihydro-2H-benzo[e]indazole-9-carboxylate] were 228 to 230 °C and 26.4%.
